# Target: Beta-secretase 1 (Homo sapiens, UniProt P56817)
# Assay: Inhibition of BACE1 by electrochemiluminescence assay
# Beta-secretase 1, sequence (P56817 whole entry): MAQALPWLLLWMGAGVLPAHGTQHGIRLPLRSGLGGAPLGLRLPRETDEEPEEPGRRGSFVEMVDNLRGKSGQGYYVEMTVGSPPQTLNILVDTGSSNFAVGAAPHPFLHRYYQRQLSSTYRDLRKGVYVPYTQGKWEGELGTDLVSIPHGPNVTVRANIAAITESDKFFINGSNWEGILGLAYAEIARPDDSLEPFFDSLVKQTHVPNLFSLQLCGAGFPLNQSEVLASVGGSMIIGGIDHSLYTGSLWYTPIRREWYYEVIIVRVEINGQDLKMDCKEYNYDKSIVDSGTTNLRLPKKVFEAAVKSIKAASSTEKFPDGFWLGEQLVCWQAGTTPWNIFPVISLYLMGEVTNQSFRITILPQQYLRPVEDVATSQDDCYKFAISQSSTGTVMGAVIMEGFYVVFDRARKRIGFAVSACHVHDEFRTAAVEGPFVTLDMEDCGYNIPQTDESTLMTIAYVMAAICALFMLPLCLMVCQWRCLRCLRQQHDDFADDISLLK
row,IC50 [µM],SMILES
1,21,C[C@@H](NC(=O)c1cc(OCC(=O)NCCCCCN)cc(-c2ccccc2C#N)c1)c1ccccc1
2,3.4,C[C@@H](NC(=O)c1cc(OCC(=O)NCCCCCN)cc(OS(=O)(=O)Cc2ccccc2)c1)c1ccccc1
3,> 100,"CC(NC(=O)c1cc(OCC(=O)NCCCCCN)cc(OS(=O)(=O)Cc2ccccc2)c1)c1ccccc1 (single isomer, unassigned)"

# Source: ChEMBL document CHEMBL1149241 (J Med Chem, 2004)
